As usually defined, the IC50 is the midpoint of a concentration-inhibition curve. Broadly, the Ki is the equilibrium dissociation constant of an inhibitor or competing ligand from its target.

Test [1] addresses Receptor tyrosine-protein kinase erbB-2 (Homo sapiens, UniProt P04626). Nature of the test: biochemical. The settings on record: insect cells. In kind it is cell-based, Insect cells.
The next test deals with T1, Substance-K receptor (Homo sapiens, UniProt P21452).
T1 sequence (P21452 whole entry): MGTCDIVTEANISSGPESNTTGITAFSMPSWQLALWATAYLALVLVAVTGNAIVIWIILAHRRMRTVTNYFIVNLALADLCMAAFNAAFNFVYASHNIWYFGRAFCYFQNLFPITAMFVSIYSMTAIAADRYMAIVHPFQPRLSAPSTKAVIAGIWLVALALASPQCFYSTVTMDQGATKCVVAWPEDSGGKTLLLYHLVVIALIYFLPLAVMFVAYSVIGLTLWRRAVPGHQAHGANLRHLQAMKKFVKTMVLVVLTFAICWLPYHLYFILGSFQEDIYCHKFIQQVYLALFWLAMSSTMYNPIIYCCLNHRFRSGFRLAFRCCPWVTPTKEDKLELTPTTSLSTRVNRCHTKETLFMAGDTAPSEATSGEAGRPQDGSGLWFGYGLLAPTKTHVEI
In kind it is cell membranes, CHO, Membrane.

The target of the next test is T2, Calcitonin receptor (Homo sapiens, UniProt P30988). Also: in other assays of this panel Not Active means under 50% inhibition at 10 µM.
T2 sequence (P30988 whole entry): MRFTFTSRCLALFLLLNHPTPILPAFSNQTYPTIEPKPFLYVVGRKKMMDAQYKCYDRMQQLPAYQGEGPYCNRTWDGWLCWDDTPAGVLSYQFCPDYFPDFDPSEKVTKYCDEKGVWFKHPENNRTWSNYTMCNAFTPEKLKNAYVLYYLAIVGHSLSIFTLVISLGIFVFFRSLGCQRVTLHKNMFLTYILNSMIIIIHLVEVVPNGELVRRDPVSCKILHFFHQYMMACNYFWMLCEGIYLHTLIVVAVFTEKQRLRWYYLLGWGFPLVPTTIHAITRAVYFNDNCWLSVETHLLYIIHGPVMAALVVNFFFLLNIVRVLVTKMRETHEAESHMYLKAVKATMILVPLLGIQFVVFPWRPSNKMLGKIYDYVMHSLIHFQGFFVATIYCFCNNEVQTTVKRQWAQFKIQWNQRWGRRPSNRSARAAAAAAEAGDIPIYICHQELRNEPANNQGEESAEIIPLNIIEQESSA
Format: cell membranes, Membrane. To be noted: t47d.

The target in test [2] is Beta-2 adrenergic receptor (Homo sapiens, UniProt P07550). Nature of the test: DRUGMATRIX: Adrenergic beta2 radioligand binding (ligand: [3H] CGP-12177). In kind it is cell membranes, Membrane. To be noted: cho; Not Active = under 50% inhibition at 10 µM.
The target in test [3] is Beta-1 adrenergic receptor (Homo sapiens, UniProt P08588). The experiment in a line: DRUGMATRIX: Adrenergic beta1 radioligand binding (ligand: [125I] Cyanopindolol). The settings on record: cho-k1; Not Active = under 50% inhibition at 10 µM. Format: cell membranes, CHO-K1, Membrane.
The target in test [4] is Vascular endothelial growth factor receptor 1 (Homo sapiens, UniProt P17948). Format: cell-based. The settings on record: huvec. Also: in other assays of this panel Not Active means under 50% inhibition at 10 µM.
Test [5] deals with Prostaglandin G/H synthase 1 (Homo sapiens, UniProt P23219). Nature of the test: biochemical. Format: tissue-based, Platelet.
For test [6], the target named is Protein kinase C alpha type (Homo sapiens, UniProt P17252). Format: cell-based. The settings on record: sf9.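 Also: inhibition of PKCalpha kinase activity measured in an enzyme assay with histone as the phosphorylation substrate; in other assays of this panel Not Active means under 50% inhibition at 10 µM.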
For Ki in this document: in other assays of this panel Not Active means under 50% inhibition at 10 µM.

Beta-1 adrenergic receptor, sequence (P08588 whole entry): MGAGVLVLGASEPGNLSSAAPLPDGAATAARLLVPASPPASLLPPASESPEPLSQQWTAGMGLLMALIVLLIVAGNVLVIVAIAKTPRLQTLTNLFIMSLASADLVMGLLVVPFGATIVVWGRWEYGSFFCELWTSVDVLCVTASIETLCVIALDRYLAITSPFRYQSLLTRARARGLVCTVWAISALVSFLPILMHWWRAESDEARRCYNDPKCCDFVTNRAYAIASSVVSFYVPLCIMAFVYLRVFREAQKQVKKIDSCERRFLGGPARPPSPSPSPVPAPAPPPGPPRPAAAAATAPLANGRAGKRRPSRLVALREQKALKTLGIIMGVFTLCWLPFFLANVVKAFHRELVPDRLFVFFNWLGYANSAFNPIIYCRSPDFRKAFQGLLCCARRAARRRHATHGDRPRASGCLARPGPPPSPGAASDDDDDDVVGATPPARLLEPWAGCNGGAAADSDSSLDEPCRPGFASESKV
Vascular endothelial growth factor receptor 1, sequence (P17948 whole entry): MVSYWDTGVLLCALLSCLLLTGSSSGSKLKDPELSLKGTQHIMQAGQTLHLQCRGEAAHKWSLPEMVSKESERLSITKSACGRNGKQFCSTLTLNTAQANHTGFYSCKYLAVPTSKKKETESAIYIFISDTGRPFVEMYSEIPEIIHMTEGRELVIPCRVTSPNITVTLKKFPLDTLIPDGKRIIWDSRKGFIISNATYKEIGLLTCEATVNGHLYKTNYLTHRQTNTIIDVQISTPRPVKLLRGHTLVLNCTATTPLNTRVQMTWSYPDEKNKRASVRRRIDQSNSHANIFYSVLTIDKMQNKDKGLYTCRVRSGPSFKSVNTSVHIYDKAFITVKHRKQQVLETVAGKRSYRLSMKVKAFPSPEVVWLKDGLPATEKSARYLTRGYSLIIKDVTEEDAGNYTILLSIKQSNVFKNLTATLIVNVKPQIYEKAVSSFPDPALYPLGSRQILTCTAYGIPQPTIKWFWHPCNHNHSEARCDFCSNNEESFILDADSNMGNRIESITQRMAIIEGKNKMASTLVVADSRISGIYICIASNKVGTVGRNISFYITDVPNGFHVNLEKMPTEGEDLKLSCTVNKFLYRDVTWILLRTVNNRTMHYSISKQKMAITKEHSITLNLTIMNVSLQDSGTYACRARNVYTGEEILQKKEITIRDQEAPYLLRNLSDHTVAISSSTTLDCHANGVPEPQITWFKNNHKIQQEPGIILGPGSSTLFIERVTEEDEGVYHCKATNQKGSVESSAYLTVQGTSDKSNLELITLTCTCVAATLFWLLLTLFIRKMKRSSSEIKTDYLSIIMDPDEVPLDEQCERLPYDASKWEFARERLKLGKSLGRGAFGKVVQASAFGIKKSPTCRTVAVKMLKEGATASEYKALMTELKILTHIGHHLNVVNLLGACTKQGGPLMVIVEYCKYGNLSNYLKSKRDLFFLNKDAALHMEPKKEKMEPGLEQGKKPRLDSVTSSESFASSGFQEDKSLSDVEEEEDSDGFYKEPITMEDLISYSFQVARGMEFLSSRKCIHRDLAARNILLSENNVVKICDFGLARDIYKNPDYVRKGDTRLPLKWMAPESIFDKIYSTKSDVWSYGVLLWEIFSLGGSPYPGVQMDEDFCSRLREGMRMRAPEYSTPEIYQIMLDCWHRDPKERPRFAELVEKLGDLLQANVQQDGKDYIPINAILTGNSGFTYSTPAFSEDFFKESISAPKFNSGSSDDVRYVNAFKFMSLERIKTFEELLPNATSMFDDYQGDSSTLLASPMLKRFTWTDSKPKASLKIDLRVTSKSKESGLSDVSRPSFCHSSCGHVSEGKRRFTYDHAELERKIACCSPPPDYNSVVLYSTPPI
Prostaglandin G/H synthase 1, sequence (P23219 whole entry): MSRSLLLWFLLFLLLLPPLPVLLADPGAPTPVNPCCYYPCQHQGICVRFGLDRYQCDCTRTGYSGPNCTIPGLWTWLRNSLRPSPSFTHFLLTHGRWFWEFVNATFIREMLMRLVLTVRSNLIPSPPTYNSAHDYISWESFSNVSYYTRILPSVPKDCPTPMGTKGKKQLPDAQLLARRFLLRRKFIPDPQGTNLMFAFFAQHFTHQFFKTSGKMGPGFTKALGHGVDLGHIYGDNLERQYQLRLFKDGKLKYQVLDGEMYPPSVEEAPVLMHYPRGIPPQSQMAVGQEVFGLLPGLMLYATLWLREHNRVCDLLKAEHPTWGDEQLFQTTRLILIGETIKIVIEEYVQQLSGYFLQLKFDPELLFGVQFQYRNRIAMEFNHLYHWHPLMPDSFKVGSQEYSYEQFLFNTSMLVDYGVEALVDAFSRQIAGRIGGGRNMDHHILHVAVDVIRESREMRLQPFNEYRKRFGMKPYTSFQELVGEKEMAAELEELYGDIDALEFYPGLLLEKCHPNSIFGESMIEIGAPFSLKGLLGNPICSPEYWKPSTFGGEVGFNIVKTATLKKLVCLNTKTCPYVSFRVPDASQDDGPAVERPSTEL
Receptor tyrosine-protein kinase erbB-2, sequence (P04626 whole entry): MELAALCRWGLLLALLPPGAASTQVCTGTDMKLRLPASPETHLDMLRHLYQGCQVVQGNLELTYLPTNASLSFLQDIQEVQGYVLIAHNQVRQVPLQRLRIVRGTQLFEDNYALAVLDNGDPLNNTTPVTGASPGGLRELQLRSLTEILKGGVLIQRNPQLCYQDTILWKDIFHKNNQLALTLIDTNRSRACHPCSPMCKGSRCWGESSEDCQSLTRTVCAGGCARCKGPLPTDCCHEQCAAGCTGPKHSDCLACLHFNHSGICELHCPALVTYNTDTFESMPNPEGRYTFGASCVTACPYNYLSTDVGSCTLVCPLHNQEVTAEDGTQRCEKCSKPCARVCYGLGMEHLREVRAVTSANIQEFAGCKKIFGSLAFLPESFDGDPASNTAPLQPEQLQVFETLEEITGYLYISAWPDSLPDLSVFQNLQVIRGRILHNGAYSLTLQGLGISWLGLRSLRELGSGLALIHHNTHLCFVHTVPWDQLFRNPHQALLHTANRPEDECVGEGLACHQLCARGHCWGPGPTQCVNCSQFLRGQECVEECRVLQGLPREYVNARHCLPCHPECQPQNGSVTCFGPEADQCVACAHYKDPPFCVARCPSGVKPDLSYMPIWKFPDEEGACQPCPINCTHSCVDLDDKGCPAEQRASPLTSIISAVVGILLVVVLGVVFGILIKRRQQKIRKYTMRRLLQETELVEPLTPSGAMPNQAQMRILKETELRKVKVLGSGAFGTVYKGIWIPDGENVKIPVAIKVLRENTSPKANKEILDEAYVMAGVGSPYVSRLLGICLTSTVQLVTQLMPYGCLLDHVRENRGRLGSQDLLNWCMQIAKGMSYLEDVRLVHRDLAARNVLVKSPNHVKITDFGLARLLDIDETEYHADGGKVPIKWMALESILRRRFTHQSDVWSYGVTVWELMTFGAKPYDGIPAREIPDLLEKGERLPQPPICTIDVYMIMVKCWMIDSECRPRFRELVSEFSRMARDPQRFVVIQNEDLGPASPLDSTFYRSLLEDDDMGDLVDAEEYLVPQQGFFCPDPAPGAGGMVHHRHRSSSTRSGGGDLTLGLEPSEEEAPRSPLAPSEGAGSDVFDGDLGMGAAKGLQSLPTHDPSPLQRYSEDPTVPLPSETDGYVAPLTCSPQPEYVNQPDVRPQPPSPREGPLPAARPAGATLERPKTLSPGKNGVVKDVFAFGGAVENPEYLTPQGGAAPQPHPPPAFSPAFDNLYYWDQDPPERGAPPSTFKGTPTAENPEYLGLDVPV
Beta-2 adrenergic receptor, sequence (P07550 whole entry): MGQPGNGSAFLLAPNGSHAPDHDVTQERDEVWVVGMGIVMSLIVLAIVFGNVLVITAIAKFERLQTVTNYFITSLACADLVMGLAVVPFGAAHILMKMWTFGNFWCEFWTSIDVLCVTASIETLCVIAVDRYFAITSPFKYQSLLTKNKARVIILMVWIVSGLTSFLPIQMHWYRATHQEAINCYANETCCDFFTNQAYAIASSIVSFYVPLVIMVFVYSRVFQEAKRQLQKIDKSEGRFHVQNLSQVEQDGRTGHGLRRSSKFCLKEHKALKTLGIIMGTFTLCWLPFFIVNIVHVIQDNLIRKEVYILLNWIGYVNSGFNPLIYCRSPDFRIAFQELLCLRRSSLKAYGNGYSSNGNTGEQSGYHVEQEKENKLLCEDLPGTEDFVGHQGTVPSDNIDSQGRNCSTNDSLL

Turning to `CC(C)(C(=O)c1cccnc1)c1cccnc1` [METYRAPONE], the IC50 entry (in test [1]; against Substance-K receptor (cho); on Calcitonin receptor; in test [2]; in test [3]; in test [4]) was “Not Active” in each case. Further, the IC50 entry in test [5] (platelet) and in test [6] was “Not Active” each time.

Regarding `Oc1ccc(OCc2ccccc2)cc1` [MONOBENZONE], the concentration for half-maximal inhibition (IC50) entry (in test [1]; on Substance-K receptor (cho); on Calcitonin receptor; in test [2]; in test [3]; in test [4]) was “Not Active” in each case. Moreover, the IC50 in test [5] (read-out: IC50) was 1020 nM; in test [6], “Not Active”.

On to `CC(C)(Oc1ccc(C2CCCc3ccccc32)cc1)C(=O)O` (stereo unspecified) [NAFENOPIN], for which the IC50 entry (in test [1]; at Substance-K receptor (cho); at Calcitonin receptor; in test [2]; in test [3]; in test [4]) was “Not Active” in each case. In addition, the concentration for half-maximal inhibition (IC50) entry in test [5] (platelet) and in test [6] was “Not Active” throughout.

As to `CC(C)[C@H]1CC[C@H](C(=O)N[C@H](Cc2ccccc2)C(=O)O)CC1` [NATEGLINIDE], the half-inhibitory concentration (IC50) entry (in test [1]; at Substance-K receptor (cho); on Calcitonin receptor; in test [2]; in test [3]; in test [4]) was “Not Active” each time. Further, the IC50 result in test [5] (platelet) and in test [6] was “Not Active” each time.

As for `CCN[C@@H]1C[C@H](N)[C@@H](O[C@H]2OC(CN)=CC[C@H]2N)[C@H](O)[C@H]1O[C@H]1OC[C@](C)(O)[C@H](NC)[C@H]1O` [NETILMICIN], the IC50 entry (in test [1]; against Substance-K receptor (cho); at Calcitonin receptor; in test [2]; in test [3]; in test [4]) was “Not Active” in each case. For the same compound, the IC50 entry in test [5] (platelet) and in test [6] was “Not Active” each time.

In the case of `COC(=O)C1=C(C)NC(C)=C(C(=O)OCC(C)C)C1c1ccccc1[N+](=O)[O-]` (stereo unspecified) [NISOLDIPINE], the IC50 result (in test [1]; against Substance-K receptor (cho); at Calcitonin receptor; in test [2]; in test [3]; in test [4]) was “Not Active” in each case. For the same compound, the half-inhibitory concentration (IC50) result in test [5] (platelet) and in test [6] was “Not Active” throughout.

Take `CCOC(=O)C1=C(C)NC(C)=C(C(=O)OC)C1c1cccc([N+](=O)[O-])c1` (stereo unspecified) [NITRENDIPINE]: the IC50 entry (in test [1]; against Substance-K receptor (cho); at Calcitonin receptor; in test [2]; in test [3]; in test [4]) was “Not Active” throughout. Moreover, the IC50 result in test [5] (platelet) and in test [6] was “Not Active” in each case.

Take `C#C[C@]1(OC(C)=O)CC[C@H]2[C@@H]3CCC4=CC(=O)CC[C@@H]4[C@H]3CC[C@@]21C` [NORETHINDRONE ACETATE]: the IC50 result (in test [1]; against Substance-K receptor (cho); on Calcitonin receptor; in test [2]; in test [3]; in test [4]) was “Not Active” in each case. The IC50 result in test [5] (platelet) and in test [6] was “Not Active” each time.

Take `COc1ccc2[nH]c([S+]([O-])Cc3ncc(C)c(OC)c3C)nc2c1` (stereo unspecified) [OMEPRAZOLE]: the IC50 entry (in test [1]; at Substance-K receptor (cho); at Calcitonin receptor; in test [2]; in test [3]; in test [4]) was “Not Active” in each case. For the same compound, the IC50 result in test [5] (platelet) and in test [6] was “Not Active” throughout.

For `Cc1nccn1CC1CCc2c(c3ccccc3n2C)C1=O` (stereo unspecified) [ONDANSETRON], the half-inhibitory concentration (IC50) entry (in test [1]; at Substance-K receptor (cho); on Calcitonin receptor; in test [2]; in test [3]; in test [4]) was “Not Active” throughout. Further, the IC50 entry in test [5] (platelet) and in test [6] was “Not Active” each time.

As to `CCn1cc(C(=O)O)c(=O)c2cc(F)c(N3CCN(C)CC3)cc21` [PEFLOXACIN], the IC50 entry (in test [1]; against Substance-K receptor (cho); at Calcitonin receptor; in test [2]; in test [3]; in test [4]) was “Not Active” throughout. Moreover, the 50% inhibitory concentration (IC50) entry in test [5] (platelet) and in test [6] was “Not Active” each time.

In the case of `CCCCOc1ccc(OCCCN2CCOCC2)cc1` [PRAMOXINE], the IC50 entry (in test [1]; against Substance-K receptor (cho); on Calcitonin receptor; in test [2]; in test [3]; in test [4]) was “Not Active” throughout. Also, the IC50 entry in test [5] (platelet) and in test [6] was “Not Active” throughout.

For `O=C(C1CCCCC1)N1CC(=O)N2CCc3ccccc3C2C1` (stereo unspecified) [PRAZIQUANTEL], the concentration for half-maximal inhibition (IC50) entry (in test [1]; against Substance-K receptor (cho); at Calcitonin receptor; in test [2]; in test [3]; in test [4]) was “Not Active” each time. Further, the IC50 entry in test [5] (platelet) and in test [6] was “Not Active” in each case.

With `CCN(CC)CCOC(=O)c1ccc(N)cc1` [PROCAINE], the half-inhibitory concentration (IC50) result (in test [1]; against Substance-K receptor (cho); at Calcitonin receptor; in test [2]; in test [3]; in test [4]) was “Not Active” each time. The IC50 entry in test [5] (platelet) and in test [6] was “Not Active” throughout.

For `CCCN(CCC)C(=O)C(CCC(=O)O)NC(=O)c1ccccc1` (stereo unspecified) [PROGLUMIDE], the IC50 entry (in test [1]; at Substance-K receptor (cho); on Calcitonin receptor; in test [2]; in test [3]; in test [4]) was “Not Active” each time. Also, the IC50 entry in test [5] (platelet) and in test [6] was “Not Active” each time.

Take `NC(=O)c1cnccn1` [PYRAZINAMIDE]: the half-inhibitory concentration (IC50) result (in test [1]; at Substance-K receptor (cho); at Calcitonin receptor; in test [2]; in test [3]; in test [4]) was “Not Active” in each case. Besides, the 50% inhibitory concentration (IC50) entry in test [5] (platelet) and in test [6] was “Not Active” in each case.

With `OC(CCN1CCCCC1)(c1ccccc1)C1CCCCC1` (stereo unspecified) [TRIHEXYPHENIDYL], the IC50 result (in test [1]; against Substance-K receptor (cho); at Calcitonin receptor; in test [2]; in test [3]; in test [4]) was “Not Active” throughout. The concentration for half-maximal inhibition (IC50) result in test [5] (platelet) and in test [6] was “Not Active” each time.

Regarding `Cc1cc2cc3c(C)cc(=O)oc3c(C)c2o1` [TRIOXSALEN], the IC50 result (in test [1]; on Substance-K receptor (cho); on Calcitonin receptor; in test [2]; in test [3]; in test [4]) was “Not Active” each time. In addition, the half-inhibitory concentration (IC50) result in test [5] (platelet) and in test [6] was “Not Active” throughout.

As for `CCCC(CCC)C(=O)O` [VALPROIC ACID], the IC50 result (in test [1]; at Substance-K receptor (cho); at Calcitonin receptor; in test [2]; in test [3]; in test [4]) was “Not Active” in each case. Also, the IC50 entry in test [5] (platelet) and in test [6] was “Not Active” in each case.

`CCC1=C[C@@H]2CN(C1)Cc1c([nH]c3ccccc13)[C@@](C(=O)OC)(c1cc3c(cc1OC)N(C)[C@H]1[C@@](O)(C(=O)OC)[C@H](OC(C)=O)[C@]4(CC)C=CCN5CC[C@]31[C@@H]54)C2` [VINORELBINE]: the half-maximal inhibitory concentration (IC50) result was “Not Active” in test [1]; 1610 nM at Substance-K receptor (read-out: IC50); “Not Active” at Calcitonin receptor; “Not Active” in test [2]; “Not Active” in test [3]; “Not Active” in test [4]. Further, the 50% inhibitory concentration (IC50) entry in test [5] (platelet) and in test [6] was “Not Active” each time. The inhibition constant (Ki) at Substance-K receptor (read-out: Ki) was 536 nM.

(Values after ChEMBL document CHEMBL1909046, “DrugMatrix in vitro pharmacology data”.)
